# From patent publication US7696161B2, “Exendin agonist compounds” (Amylin Pharmaceuticals, Inc., priority 1997, dated 2010)
# How the values were obtained:
# [1] = target: cyclase (RINm5f membranes); assay: Cyclase activation study (cAMP by SPA immunoassay, membranes); format: biochemical; details: cAMP in membranes, 20 minutes incubation at 37° C.
# Method: GLP-1(7-36) [NH2] was purchased from Bachem (Torrance, Calif.). All other peptides were prepared using synthesis methods such as those described therein. All chemicals were of the highest commercial grade. The cAMP SPA immunoassay was purchased from Amersham. The radioligands were purchased from New England Nuclear (Boston, Mass.). […] Cells were grown to confluence then harvested and homogenized using on a Polytron homogenizer. Cell homogenates were stored frozen at −70° C. until used. […] Membranes and peptides were combined in […] of assay buffer in 96 well filter-bottom plates (Millipore Corp., Bedford, Mass.). […] Supernatant cAMP contents were quantitated by SPA immunoassay. […] The biological activity of a particular sample was expressed as an EC50 value, calculated as described above.
# C57BLKS/J-m-db mice = assay: Determination of blood glucose levels in db/db mice; format: in vivo; details: 1 μg subcutaneous, plasma glucose one hour after injection vs baseline
# [2] = tested on: Harlan Sprague Dawley (HSD) rats; assay: Gastric emptying in rats (phenol red gel gavage); format: in vivo; details: for EC50 (gastric emptying): conscious male HSD rats, gastric contents remaining 20 min after gavage; for effect on gastric emptying (in words): male HSD rats, dose-response 0.1-100 μg
# Source text: This experiment followed a modification of the method of Scarpignato, et al., Arch. Int. Pharmacodyn. […] Male Harlan Sprague Dawley (HSD) rats were used. […] ID. […] Twenty minutes after gavage, rats were anesthetized using 5% halothane, the stomach exposed and clamped at the pyloric and lower esophageal sphincters using artery forceps, removed and opened into an alkaline solution which was made up to a fixed volume. Stomach content was derived from the intensity of the phenol red in the alkaline solution, measured by absorbance at a wavelength of 560 nm. In separate experiments on 7 rats, the stomach and small intestine were both excised and opened into an alkaline solution. […] ID.
EC50 [1],EC50 (gastric emptying) [2],SMILES,% drop in glucose (C57BLKS/J-m-db mice),effect on gastric emptying (in words) [2]
5.37 nM,0.27 µg,CC[C@H](C)[C@H](NC(=O)[C@H](Cc1ccccc1)NC(=O)[C@H](CC(C)C)NC(=O)[C@H](CCCNC(=N)N)NC(=O)[C@@H](NC(=O)[C@H](C)NC(=O)[C@H](CCC(=O)O)NC(=O)[C@H](CCC(=O)O)NC(=O)[C@H](CCC(=O)O)NC(=O)[C@H](CC(C)C)NC(=O)[C@H](CCC(N)=O)NC(=O)[C@H](C)NC(=O)[C@H](CO)NC(=O)[C@H](CC(C)C)NC(=O)[C@H](CC(=O)O)NC(=O)[C@H](CO)NC(=O)[C@@H](NC(=O)[C@H](Cc1ccccc1)NC(=O)[C@@H](NC(=O)CNC(=O)[C@H](CCC(=O)O)NC(=O)CNC(=O)[C@@H](N)Cc1c[nH]cn1)[C@@H](C)O)[C@@H](C)O)C(C)C)C(=O)N[C@@H](CCC(=O)O)C(=O)N[C@@H](Cc1ccccc1)C(=O)N[C@@H](CC(C)C)C(=O)N[C@@H](CCCCN)C(=O)N[C@@H](CC(N)=O)C(N)=O [Compound 10],46%,potent inhibitors of gastric emptying
79.6 nM,60 µg,CC[C@H](C)[C@H](NC(=O)[C@H](Cc1ccccc1)NC(=O)[C@H](CC(C)C)NC(=O)[C@H](CCCNC(=N)N)NC(=O)[C@@H](NC(=O)[C@H](C)NC(=O)[C@H](CCC(=O)O)NC(=O)[C@H](CCC(=O)O)NC(=O)[C@H](C)NC(=O)[C@H](CC(C)C)NC(=O)[C@H](CCC(N)=O)NC(=O)[C@H](CCCCN)NC(=O)[C@H](CO)NC(=O)[C@H](CC(C)C)NC(=O)[C@H](CC(=O)O)NC(=O)[C@H](CO)NC(=O)[C@@H](NC(=O)[C@H](Cc1ccccc1)NC(=O)[C@@H](NC(=O)CNC(=O)[C@H](CCC(=O)O)NC(=O)CNC(=O)[C@@H](N)Cc1c[nH]cn1)[C@@H](C)O)[C@@H](C)O)C(C)C)C(=O)N[C@@H](CCC(=O)O)C(=O)N[C@@H](Cc1ccccc1)C(=O)N[C@@H](CC(C)C)C(=O)N[C@@H](CCCCN)C(=O)N[C@@H](CC(N)=O)C(N)=O [Compound 13],45%,potent inhibitors of gastric emptying
1.11 nM,,CC[C@H](C)[C@H](NC(=O)[C@H](Cc1ccccc1)NC(=O)[C@H](CC(C)C)NC(=O)[C@H](CCCNC(=N)N)NC(=O)[C@@H](NC(=O)[C@H](C)NC(=O)[C@H](CCC(=O)O)NC(=O)[C@H](C)NC(=O)[C@H](CCC(=O)O)NC(=O)[C@H](CC(C)C)NC(=O)[C@H](CCC(N)=O)NC(=O)[C@H](CCCCN)NC(=O)[C@H](CO)NC(=O)[C@H](CC(C)C)NC(=O)[C@H](CC(=O)O)NC(=O)[C@H](CO)NC(=O)[C@@H](NC(=O)[C@H](Cc1ccccc1)NC(=O)[C@@H](NC(=O)CNC(=O)[C@H](CCC(=O)O)NC(=O)CNC(=O)[C@@H](N)Cc1c[nH]cn1)[C@@H](C)O)[C@@H](C)O)C(C)C)C(=O)N[C@@H](CCC(=O)O)C(=O)N[C@@H](Cc1ccccc1)C(=O)N[C@@H](CC(C)C)C(=O)N[C@@H](CCCCN)C(=O)N[C@@H](CC(N)=O)C(N)=O [Compound 14],54%,
1.05 nM,,CC[C@H](C)[C@H](NC(=O)[C@H](Cc1ccccc1)NC(=O)[C@H](CC(C)C)NC(=O)[C@H](CCCNC(=N)N)NC(=O)[C@@H](NC(=O)[C@H](C)NC(=O)[C@H](C)NC(=O)[C@H](CCC(=O)O)NC(=O)[C@H](CCC(=O)O)NC(=O)[C@H](CC(C)C)NC(=O)[C@H](CCC(N)=O)NC(=O)[C@H](CCCCN)NC(=O)[C@H](CO)NC(=O)[C@H](CC(C)C)NC(=O)[C@H](CC(=O)O)NC(=O)[C@H](CO)NC(=O)[C@@H](NC(=O)[C@H](Cc1ccccc1)NC(=O)[C@@H](NC(=O)CNC(=O)[C@H](CCC(=O)O)NC(=O)CNC(=O)[C@@H](N)Cc1c[nH]cn1)[C@@H](C)O)[C@@H](C)O)C(C)C)C(=O)N[C@@H](CCC(=O)O)C(=O)N[C@@H](Cc1ccccc1)C(=O)N[C@@H](CC(C)C)C(=O)N[C@@H](CCCCN)C(=O)N[C@@H](CC(N)=O)C(N)=O [Compound 15],45%,
5.12 nM,,CC[C@H](C)[C@H](NC(=O)[C@H](Cc1ccccc1)NC(=O)[C@H](CC(C)C)NC(=O)[C@H](CCCNC(=N)N)NC(=O)[C@H](C)NC(=O)[C@H](C)NC(=O)[C@H](CCC(=O)O)NC(=O)[C@H](CCC(=O)O)NC(=O)[C@H](CCC(=O)O)NC(=O)[C@H](CC(C)C)NC(=O)[C@H](CCC(N)=O)NC(=O)[C@H](CCCCN)NC(=O)[C@H](CO)NC(=O)[C@H](CC(C)C)NC(=O)[C@H](CC(=O)O)NC(=O)[C@H](CO)NC(=O)[C@@H](NC(=O)[C@H](Cc1ccccc1)NC(=O)[C@@H](NC(=O)CNC(=O)[C@H](CCC(=O)O)NC(=O)CNC(=O)[C@@H](N)Cc1c[nH]cn1)[C@@H](C)O)[C@@H](C)O)C(=O)N[C@@H](CCC(=O)O)C(=O)N[C@@H](Cc1ccccc1)C(=O)N[C@@H](CC(C)C)C(=O)N[C@@H](CCCCN)C(=O)N[C@@H](CC(N)=O)C(N)=O [Compound 16],54%,
43.6 nM,,CC[C@H](C)[C@H](NC(=O)[C@H](Cc1ccccc1)NC(=O)[C@H](CC(C)C)NC(=O)[C@H](C)NC(=O)[C@@H](NC(=O)[C@H](C)NC(=O)[C@H](CCC(=O)O)NC(=O)[C@H](CCC(=O)O)NC(=O)[C@H](CCC(=O)O)NC(=O)[C@H](CC(C)C)NC(=O)[C@H](CCC(N)=O)NC(=O)[C@H](CCCCN)NC(=O)[C@H](CO)NC(=O)[C@H](CC(C)C)NC(=O)[C@H](CC(=O)O)NC(=O)[C@H](CO)NC(=O)[C@@H](NC(=O)[C@H](Cc1ccccc1)NC(=O)[C@@H](NC(=O)CNC(=O)[C@H](CCC(=O)O)NC(=O)CNC(=O)[C@@H](N)Cc1c[nH]cn1)[C@@H](C)O)[C@@H](C)O)C(C)C)C(=O)N[C@@H](CCC(=O)O)C(=O)N[C@@H](Cc1ccccc1)C(=O)N[C@@H](CC(C)C)C(=O)N[C@@H](CCCCN)C(=O)N[C@@H](CC(N)=O)C(N)=O [Compound 17],45%,
0.76 nM,,CC[C@H](C)[C@H](NC(=O)[C@H](Cc1ccccc1)NC(=O)[C@H](C)NC(=O)[C@H](CCCNC(=N)N)NC(=O)[C@@H](NC(=O)[C@H](C)NC(=O)[C@H](CCC(=O)O)NC(=O)[C@H](CCC(=O)O)NC(=O)[C@H](CCC(=O)O)NC(=O)[C@H](CC(C)C)NC(=O)[C@H](CCC(N)=O)NC(=O)[C@H](CCCCN)NC(=O)[C@H](CO)NC(=O)[C@H](CC(C)C)NC(=O)[C@H](CC(=O)O)NC(=O)[C@H](CO)NC(=O)[C@@H](NC(=O)[C@H](Cc1ccccc1)NC(=O)[C@@H](NC(=O)CNC(=O)[C@H](CCC(=O)O)NC(=O)CNC(=O)[C@@H](N)Cc1c[nH]cn1)[C@@H](C)O)[C@@H](C)O)C(C)C)C(=O)N[C@@H](CCC(=O)O)C(=O)N[C@@H](Cc1ccccc1)C(=O)N[C@@H](CC(C)C)C(=O)N[C@@H](CCCCN)C(=O)N[C@@H](CC(N)=O)C(N)=O [Compound 18],50%,
